The values below are quoted from earlier work in article PMC4567415 (Nuclear medicine and biology, 2015).

Values joined by “and” are separate entries in the source; they are usually repeats but may differ in a detail not shown here. Equal values may be shown once. Read-outs that look alike come from different tables or passages of the source.

Series [1] concerns Pgp.
The conditions of series [2]: previously described rhodamine B ester.
For series [3] the following is noted: rats, 60 min.
For series [4], the system named is isolated rat cardiomyocytes.
For series [5] the following is noted: previously observed.
Setting [6] is: Sprague-Dawley rats, 60 min p.i.

Turning to `CC/N=c1\cc2oc3cc(NCC)c(C)cc3c(-c3ccccc3C(=O)OCC)c-2cc1C` [rhodamine 6G], the “substrate of Pgp” value in series [1] is recorded as “substrate of Pgp”.

`CC(C)(C)n1ncc(OCc2ccc(COCCF)cc2)c(Cl)c1=O` [BMS-747158-02]: the heart-to-blood ratio (30 min p.i.) is listed as 30.0. Further, the heart-to-liver ratio is 2.7 (30 min p.i.); 5.4 (120 min p.i.); 3.7 under setting [6]; 5.4 (Wistar rats, 60 min p.i.). The liver concentration is listed as 1.27±0.10 % ID/g (30 min p.i.) and 0.63±0.16 % ID/g (120 min p.i.). Further, the heart concentration by setting is: under setting [6], 3.3±0.3 % ID/g; (Wistar rats, 60 min p.i.) 2.06±0.83 % ID/g.

For `Fc1ccc([P+](c2ccccc2)(c2ccccc2)c2ccccc2)cc1` [BFPET], the heart uptake (Sprague-Dawley rats, 30 min) was 1.51±0.04 % ID/g and the heart uptake under setting [6] is 1.57±0.18 % ID/g. Besides, the liver concentration was 0.18±0.05 % ID/g (Sprague-Dawley rats, 30 min p.i.) and 0.17±0.03 % ID/g under setting [6].

Regarding `CCN(CC)c1ccc2c(-c3ccccc3C(=O)OCCOCC[18F])c3ccc(N(CC)CC)cc3[o+]c2c1` [[^18F]2], the LogD in series [2] is 1.90 ± 0.01. For the same molecule, in series [3], the “Biodistribution of radioactivity, Blood” value is on record as 0.25 ± 0.02 % ID/g; the “Biodistribution of radioactivity, Bone” value is reported as 0.77 ± 0.04 % ID/g; the “Biodistribution of radioactivity, Gut” value was 1.69 ± 0.42 % ID/g; the “Biodistribution of radioactivity, Heart” value was 2.5 % ID/g and 2.51 ± 0.16 % ID/g. In series [3], the “Biodistribution of radioactivity, Kidney” value was 9.28 ± 0.66 % ID/g; the “Biodistribution of radioactivity, Liver” value is recorded as 0.49 ± 0.04 % ID/g; the “Biodistribution of radioactivity, Lung” value was 2.06 ± 0.16 % ID/g; the “Biodistribution of radioactivity, Muscle” value is given as 0.54 ± 0.07 % ID/g. Also, in series [3], the “Biodistribution of radioactivity, Skin” value is 0.36 ± 0.04 % ID/g; the “Biodistribution of radioactivity, Spleen” value is listed as 3.53 ± 0.57 % ID/g; the Heart/blood tissue ratio is 10.0; the Heart/bone tissue ratio is on record as 3.3. Besides, in series [3], the Heart/liver tissue ratio is reported as 5.1 and the Heart/lung tissue ratio is recorded as 1.2. Moreover, the “initial activity internalized into rat cardiomyocytes” value in series [4] (1 min incubation) is given as 3.9±0.8%. In addition, the “initial activity internalized into rat cardiomyocytes” value in series [4] (60 min incubation) is on record as 43.1±7.7%. For the same molecule, the “stability in mouse serum” value in series [5] is “instability”.

As usually defined, the LogD is the decadic logarithm of the distribution of all forms, ionised or not, between an organic phase and buffer at a given pH.
